# Test results as given in patent US20220332708A1 (Cytokinetics, Inc., priority 2021, published 2022).
# Test system: Bovine cardiac myofibrils
# Assay: Dose-dependent myofibril ATPase modulation (calcium-buffered, pyruvate kinase and lactate dehydrogenase-coupled ATPase assay at pCa25)
# Type: biochemical
# Details: concentration at which ATPase activity was 1.4-fold higher than the bottom of the dose curve, mean of a minimum of two independent tests
# Procedure: In Vitro Model of Dose-Dependent Myofibril ATPase Modulation
# Dose responses were measured using a calcium-buffered, pyruvate kinase and lactate dehydrogenase-coupled ATPase assay containing the following reagents (concentrations expressed are final assay concentrations): Potassium PIPES (12 mM), MgCl2 (2 mM), ATP (1 mM), DTT (1 mM), BSA (0.1 mg/ml), NADH (0.5 mM), PEP (1.5 mM), pyruvate kinase (4 U/ml), lactate dehydrogenase (8 U/ml), and antifoam (90 ppm). The pH was adjusted to 6.80 at 22° C. by addition of potassium hydroxide. Calcium levels were controlled by a buffering system containing 0.6 mM EGTA and varying concentrations of calcium, to achieve a free calcium concentration of 1×10^−4 M to 1×10^−8 M.
# Bovine cardiac myofibrils were obtained by homogenizing the appropriate tissue in the presence of detergent. Such treatment removes membranes and majority of soluble cytoplasmic proteins but leaves intact cardiac sarcomeric acto-myosin apparatus. Concentrations of myofibrils were adjusted to achieve the necessary rate of ATP hydrolysis (typically 0.25-1.0 mg/ml).
# Chemical entity dose responses were measured at the calcium concentration corresponding to 25% of maximal ATPase activity (pCa25), so a preliminary experiment was performed to test the response of the ATPase activity to free calcium concentrations in the range of 1×10^−4 M to 1×10^−8 M. Subsequently, the assay mixture was adjusted to the pCa25. Assays were performed by first preparing a dilution series of test chemical entity, each with an assay mixture containing potassium Pipes, MgCl2, BSA, DTT, pyruvate kinase, lactate dehydrogenase, myofibrils, antifoam, EGTA, CaCl2), and water. The assay was started by adding an equal volume of solution containing potassium Pipes, MgCl2, BSA, DTT, ATP, NADH, PEP, antifoam, and water. ATP hydrolysis was monitored by absorbance at 340 nm. The resulting dose response curve was fit by the 4 parameter equation y=Bottom+((Top−Bottom)/(1+((EC50/X)^Hill))). […] AC1.4 values reported in the table below are mean values based on a minimum of two independent tests.
row,AC1.4 [µM],Structure (SMILES)
1,2.215,"CNc1cc2c(cc1S(=O)(=O)N[C@H](C)Cc1cc3ccc(F)cc3[nH]1)c(=O)[nH]c(=O)n2C [Compound 26, (R)-N-(1-(6-fluoro-1H-indo1-2-yl)propan-2-yl)-1-methyl-7-(methylamino)-2,4-dioxo-1,2,3,4-tetrahydroquinazoline-6-sulfonamide]"
2,0.2504,"CNc1cc2nc(C)[nH]c(=O)c2cc1S(=O)(=O)NC1CCc2c([nH]c3ccccc23)C1 (stereo not shown) [Compound 28, 2-Methyl-7-(methylamino)-4-oxo-N-(2,3,4,9-tetrahydro-1H-carbazol-2-yl)-3,4-dihydroquinazoline-6-sulfonamide]"
3,8.204,"CNc1cc2nc(C)[nH]c(=O)c2cc1S(=O)(=O)NC(C)Cc1[nH]c2ccccc2c1C (stereo not shown) [Compound 29, 2-Methyl-N-(1-(3-methyl-1H-indo1-2-yl)propan-2-yl)-7-(methylamino)-4-oxo-3,4-dihydroquinazoline-6-sulfonamide]"
4,5.8178,"CNc1cc2nc(C)[nH]c(=O)c2cc1S(=O)(=O)N[C@H]1CCc2c([nH]c3ccccc23)C1 [Compound 32, (S)-2-Methyl-7-(methylamino)-4-oxo-N-(2,3,4,9-tetrahydro-1H-carbazol-2-yl)-3,4-dihydroquinazoline-6-sulfonamide]"
5,13.2484,CNc1cc2nc(C)[nH]c(=O)c2cc1S(=O)(=O)NCCc1cc2ccccc2[nH]1 [Compound 34]

# Continued, molecule first:
row,Structure (SMILES),AC1.4 [µM]
1,"CNc1cc2c(cc1S(=O)(=O)N[C@H]1C[C@@H](Nc3ccc(F)cc3)C1)c(=O)[nH]c(=O)n2C [Compound 25, N-((cis)-3-((4-fluorophenyl)amino)cyclobutyl)-1-methyl-7-(methylamino)-2,4-dioxo-1,2,3,4-tetrahydroquinazoline-6-sulfonamide]",1.8965
2,"CCOC(=O)c1cc(S(=O)(=O)Nc2ccc(N3C[C@H](C)C[C@@H](C)C3)nc2)[nH]c1C [Compound 30, Ethyl 5-(N-(6-((3R,5R)-3,5-dimethylpiperidin-1-yl)pyridin-3-yl)sulfamoyl)-2-methyl-1H-pyrrole-3-carboxylate]",0.4832
3,"Cc1[nH]c(S(=O)(=O)NC23COc4cc(F)c(Cl)cc4C2C3)cc1C(=O)N1CC(C)(C#N)C1 (stereo not shown) [Compound 31, N-(6-chloro-5-fluoro-1,7b-dihydrocyclopropa[c]chromen-1a(2H)-yl)-4-(3-cyano-3-methylazetidine-1-carbonyl)-5-methyl-1H-pyrrole-2-sulfonamide]",1.274
4,"CNC(=O)c1cc(S(=O)(=O)NC2CCc3c([nH]c4ccccc34)C2)[nH]c1C (stereo not shown) [Compound 35, N,2-dimethyl-5-(N-(2,3,4,9-tetrahydro-1H-carbazol-2-yl)sulfamoyl)-1H-pyrrole-3-carboxamide]",6.2537
5,"Cc1[nH]c(S(=O)(=O)NC2CCc3c([nH]c4ccccc34)C2)cc1C(=O)N(C)C (stereo not shown) [Compound 36, N,N,2-trimethyl-5-(N-(2,3,4,9-tetrahydro-1H-carbazol-2-yl)sulfamoyl)-1H-pyrrole-3-carboxamide]",6.922
6,"COCCNC(=O)c1cc(S(=O)(=O)NC2CCc3c([nH]c4ccccc34)C2)[nH]c1C (stereo not shown) [Compound 37, N-(2-methoxyethyl)-2-methyl-5-(N-(2,3,4,9-tetrahydro-1H-carbazol-2-yl)sulfamoyl)-1H-pyrrole-3-carboxamide]",2.9421
7,"Cc1[nH]c(S(=O)(=O)N[C@@H]2CCc3c([nH]c4ccccc34)C2)cc1C(N)=O [Compound 38, (R)-2-methyl-5-(N-(2,3,4,9-tetrahydro-1H-carbazol-2-yl)sulfamoyl)-1H-pyrrole-3-carboxamide]",4.3985
8,"Cc1[nH]c(S(=O)(=O)N[C@@H]2CCc3c([nH]c4ccccc34)C2)cc1C(=O)NCCO [Compound 39, (R)-N-(2-hydroxyethyl)-2-methyl-5-(N-(2,3,4,9-tetrahydro-1H-carbazol-2-yl)sulfamoyl)-1H-pyrrole-3-carboxamide]",1.722
